From patent publication US20240279205A1, “NOVEL BENZIMIDAZOLE DERIVATIVE” (Carna Biosciences, Inc., priority 2020, published 2024)
Counter-ions that a name gives are not always drawn.

How the values were obtained:
[1] = system: STING activation (IFN-β production in THP-1 cells); test: Human IFN-β production inhibition test by cGAMP stimulation in THP-1 cells; format: cell-based; parameters: IFN-β bioinhibitory activity: scale not given here; conditions: 2'3'-cGAMP transfection, 18 hours, IFN-β ELISA; for IC50: Homo sapiens, read-out: IFN-β bioinhibitory activity
Description: Human IFN-β production inhibition test by cGAMP stimulation
The inhibitory activity of test compounds against STING activation was evaluated by measuring the amount of IFN-β produced when human monocytic cell line THP-1 cells were stimulated with the endogenous ligand cGAMP.
After seeding THP-1 cells (ATCC) in a 96-well plate, PMA (Santa Cruz Biotechnology) adjusted to a concentration of 100 nM after addition was added, and incubated at 37° C. in a 5% CO2 incubator. It was cultured overnight (RPMI1640 medium containing 10% FBS, 50 U/mL penicillin/50 μg/mL streptomycin). A test compound solution adjusted to a final concentration of 0.001 to 1 μM was added to each well of this plate and cultured for 1 hour in a CO2 incubator (DMSO final concentration 0.1%). 0.12 μg/well of 2′3′-cGAMP (Invivogen, #tlrl-nacga23) was introduced into the cells by transfection using Lipofectamine2000 (Invitrogen) and cultured in a CO incubator for an additional 18 hours. After collecting the culture supernatant from each well, the amount of human IFN-β produced in the culture supernatant was measured by ELISA using R&D human IFN-β Duoset (R&D Systems).
Assuming that the human IFN-β production amount of the test compound-free and cGAMP-added group is 100%, and the human IFN-β production amount of the test compound-free and cGAMP-free group is 0%, the IC50 value was determined by regression analysis of the inhibitory rate determined from the amount of human IFN-β production at each compound concentration and the concentration of the test compound (logarithm).

human STING (hSTING) = target: T1, human STING (hSTING) (Homo sapiens, UniProt Q86WV6); test: Inhibition test of intracellular human STING (hSTING) pathway using SEAP reporter cells (HEK-Blue ISG), stimulation with Compound 3; format: cell-based; parameters: hSTING inhibitory activity: scale not given here; conditions: Compound 3 10 nM stimulation, 21 hours
T1 construct: host or cells: HEK-Blue ISG cells (HEK293-derived SEAP reporter line)
Summary of the method: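 IC50 derived by regressing inhibition rate against log compound concentration (0.1 to 10 μM final, added 1 h before agonist), with 0% and 100% set by wells without and with 10 nM Compound 3. SEAP colour reaction read after 21 h stimulation of HEK-Blue ISG reporter cells.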

T1 sequence (Q86WV6 whole entry H232R): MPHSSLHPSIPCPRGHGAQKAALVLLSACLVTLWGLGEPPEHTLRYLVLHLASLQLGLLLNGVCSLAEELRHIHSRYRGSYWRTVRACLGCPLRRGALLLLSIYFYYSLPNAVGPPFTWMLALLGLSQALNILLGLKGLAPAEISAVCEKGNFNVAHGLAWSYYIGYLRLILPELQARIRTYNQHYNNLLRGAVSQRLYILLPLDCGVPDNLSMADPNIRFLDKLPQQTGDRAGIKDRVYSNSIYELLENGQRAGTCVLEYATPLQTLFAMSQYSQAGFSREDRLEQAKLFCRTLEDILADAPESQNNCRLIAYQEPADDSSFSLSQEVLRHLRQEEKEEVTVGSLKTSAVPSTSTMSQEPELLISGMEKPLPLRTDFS

| SMILES | IC50 [1] | hSTING inhibitory activity (human STING (hSTING)) | IFN-β bioinhibitory activity [1] |
| --- | --- | --- | --- |
| COc1ccnc2c(Nc3nc4cc(Oc5ccccc5)ccc4[nH]3)c[nH]c12 [Embodiment 77, N-(7-Methoxy-1H-pyrrolo[3,2-b]pyridin-3-yl)-5-phenoxy-1H-benzo[d]imidazol-2-amine formate] | ≥ 1 µM | * * | – |
| Fc1cc2nc(Nc3c[nH]c4ccc(Cl)nc34)[nH]c2cc1F [Embodiment 78, N-(5-Chloro-1H-pyrrolo[3,2-b]pyridin-3-yl)-5,6-difluoro-1H-benzo[d]imidazol-2-amine] | ≥ 1 µM | * * | – |
| Cc1cc2nc(Nc3c[nH]c4ccc(Br)nc34)[nH]c2cc1C [Embodiment 79, N-(5-bromo-1H-pyrrolo[3,2-b]pyridin-3-yl)-5,6-dimethyl-1H-benzo[d]imidazol-2-amine] | 0.1 to 1 µM | * * | – |
| Brc1ccc2[nH]cc(Nc3nc4cc(I)ccc4[nH]3)c2n1 [Embodiment 80, N-(5-bromo-1H-pyrrolo[3,2-b]pyridin-3-yl)-5-iodo-1H-benzo [d]imidazol-2-amine] | – | * * * | * * * |
| Fc1ccc2[nH]c(Nc3c[nH]c4ccc(Cl)nc34)nc2c1F [Embodiment 82, N-(5-Chloro-1H-pyrrolo[3,2-b]pyridin-3-yl)-4,5-difluoro-1H-benzo[d]imidazol-2-amine] | – | * * | * * |
| Clc1cc(Cl)c2nc(Nc3c[nH]c4ccc(Cl)nc34)[nH]c2c1 [Embodiment 84, 4,6-dichloro-N-(5-chloro-1H-pyrrolo[3,2-b]pyridin-3-yl)-1H-benzo[d]imidazol-2-amine] | ≥ 1 µM | * * | – |
| Fc1cc(F)c2nc(Nc3c[nH]c4ccc(Cl)nc34)[nH]c2c1 [Embodiment 86, N-(5-Chloro-1H-pyrrolo[3,2-b]pyridin-3-yl)-4,6-difluoro-1H-benzo[d]imidazol-2-amine formate] | ≥ 1 µM | * * | – |
| Cc1cc(C)c2nc(Nc3c[nH]c4ccc(Cl)nc34)[nH]c2c1 [Embodiment 87, N-(5-Chloro-1H-pyrrolo[3,2-b]pyridin-3-yl)-4,6-dimethyl-1H-benzo[d]imidazol-2-amine] | 0.1 to 1 µM | * * | – |
| Clc1cc2nc(Nc3c[nH]c4ccc(Br)nc34)[nH]c2cc1Cl [Embodiment 88, N-(5-bromo-1H-pyrrolo[3,2-b]pyridin-3-yl)-5,6-dichloro-1H-benzo[d]imidazol-2-amine] | 0.1 to 1 µM | * * * | – |
| FC(F)(F)c1cccc2[nH]c(Nc3c[nH]c4ccc(Br)nc34)nc12 [Embodiment 89, N-(5-bromo-1H-pyrrolo[3,2-b]pyridin-3-yl)-4-(trifluoromethyl)-1H-benzo[d]imidazol-2-amine] | 0.1 to 1 µM | * * * | – |
| CCCCn1c(Nc2c[nH]c3ccc(Br)nc23)nc2ccc(Oc3ccccc3)cc21 [Embodiment 91, N-(5-bromo-1H-pyrrolo[3,2-b]pyridin-3-yl)-1-butyl-6-phenoxy-1H-benzo[d]imidazol-2-amine] | 0.1 to 1 µM | * * * | – |
| COCCn1c(Nc2c[nH]c3ccc(Br)nc23)nc2ccc(Oc3ccccc3)cc21 [Embodiment 93, N-(5-bromo-1H-pyrrolo[3,2-b]pyridin-3-yl)-1-(2-methoxyethyl)-6-phenoxy-1H-benzo[d]imidazol-2-amine] | 0.1 to 1 µM | * * * | – |
| Clc1ccc2[nH]cc(Nc3nc4c(Cl)c(Cl)ccc4[nH]3)c2n1 [Embodiment 94, 4,5-dichloro-N-(5-chloro-1H-pyrrolo[3,2-b]pyridin-3-yl)-1H-benzo[d]imidazol-2-amine] | 0.1 to 1 µM | * * * | – |
| Clc1ccc2[nH]cc(Nc3nc4cc(Br)ccc4[nH]3)c2n1 [Embodiment 95, 5-bromo-N-(5-chloro-1H-pyrrolo [3,2-b]pyridin-3-yl)-1H-benzo [d]imidazol-2-amine formate] | – | * * | * * * |
